Test results reported in patent US20100120789A1, “Compound” (priority 2005, published 2010).

Key:
[1] = target: T1, Human 11β-HSD1 (Homo sapiens, UniProt P28845); assay: 11β-HSD1 HEK assay (whole HEK 293 cells stably transfected with HSD11B1, SPA); format: cell-based; parameters: expressed in transfected cells; host or cells: HEK 293; settings: HEK293
[2] = target: T1, Human 11β-HSD1; assay: 11β-HSD1 HTRF assay (human liver microsome fractions, cortisol by HTRF); format: biochemical; settings: 10 μM compound; human liver microsomes
Procedure: 11β-HSD1 HTRF Assay Protocol
The 11β-HSD Type 1 assay was carried out at room temperature in 96 well microtitre plates in a total volume of 40 μl. Assay buffer contained 30 mM Tris.HCl, 1 mM EDTA, pH 7.2. Inhibitor compounds were tested at varying concentrations at a final Dimethyl Sulphoxide concentration of 1%. Compounds were usually tested at 10 μM. The substrate mixture contained cortisone, NADPH and glucose-6-phosphate at final concentrations of 1 μM, 180 μM and 1 mM respectively. Assays were started by the addition of 10p1 human liver microsome fractions, 20 mg per ml protein, containing 11β-HSD Type 1, diluted 1 to 40 prior to use. Following mixing microtitre plates were shaken for 30 minutes. Reactions were stopped by the addition of 10 μl 1 mM Glyccheritinnic acid solution. Production of Cortisol was measured by Homogenous Time Resolved Fluorescence using a cortisol assay kit; Cisbio International Cortisol HTRF kit (62CORPEB), following the manufacturer's protocol.

[3] = target: T1, Human 11β-HSD1; assay: 11β-HSD1 HEK assay (whole HEK 293 cells stably transfected with HSD11B1, SPA); format: cell-based; parameters: expressed in transfected cells; host or cells: HEK 293; settings: HEK293, read-out: % INHIBITION of Human 11 β-HSD1 at 10 μM (HEK)
Procedure: 11β-HSD1 HEK Assay Protocol (Cell Based Assay)
11β-HSD1 activity is measured in whole HEK 293 cells stably transfected with the HSD11B1 gene. Cells are incubated in 96-well microplates in the presence of tritiated substrate. Enzyme activity is determined by measuring the amount of tritated product by scintillation proximity assay (SPA). Assay plates contain internal high and low controls to allow calculation of percentage inhibition.
2. When the cells are 80% confluent the medium is removed from each well. 100 μl fresh, serum-free, medium containing ^3H-cortisone and test compound in 1% DMSO is added to each well*. Control wells are also dispensed.
3. The plate is incubated at […] for the required time period.
4. 50 μl of media is removed from each well and transferred to a microplate containing 100 μl of a pre-incubated mixture of anti-cortisol antibody and SPA bead. The mixture is incubated with gentle shaking until equilibrium is reached, before transferring to a scintillation counter to establish the enzyme activity in each sample.
10 μl of compound is dispensed into each well of a 96-well microplate in 10% DMSO at 100 μM concentration. 90 μl media containing ^3H-cortisone is added to each well. The compound/media/substrate mixture is then transferred to the assay plate containing the cells.

T1 sequence (P28845 whole entry): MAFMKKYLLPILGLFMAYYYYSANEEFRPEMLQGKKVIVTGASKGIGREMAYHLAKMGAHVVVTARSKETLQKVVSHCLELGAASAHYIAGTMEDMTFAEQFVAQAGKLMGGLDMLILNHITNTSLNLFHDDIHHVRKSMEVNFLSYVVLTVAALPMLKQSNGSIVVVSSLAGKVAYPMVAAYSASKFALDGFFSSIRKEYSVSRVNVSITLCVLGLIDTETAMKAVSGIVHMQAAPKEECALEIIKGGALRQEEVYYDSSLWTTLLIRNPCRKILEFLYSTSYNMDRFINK

Compound	inhibition at 1 µM [1]	inhibition at 10 µM [2]	inhibition at 10 µM [3]
NC(=O)c1ccc(COCC(=O)C23CC4CC(CC(C4)C2)C3)cc1 [Compound 17]	63%	–	–
Cc1ccc(SCC(=O)C23CC4CC(CC(C4)C2)C3)cc1 [compound 1537]	–	> 60%	> 60%
O=C(CC12CC3CC(CC(C3)C1)C2)NCc1cccs1 [compound 1564]	–	> 60%	> 60%
Cc1nc2c(NC(=O)C34CC5CC(CC(C5)C3)C4)c(C)ccc2s1 [compound 1372]	–	20 to 60%	20 to 60%
CN1CCCC1CCNC(=O)C12CC3CC(CC(C3)C1)C2 (stereo not shown) [compound 1597]	–	> 60%	< 20%
O=S(=O)(NC12CC3CC(CC(C3)C1)C2)c1ccc(-c2ccccc2)cc1 [compound 1344]	–	20 to 60%	20 to 60%
O=C(NCCc1c[nH]c2ccccc12)C12CC3CC(CC(C3)C1)C2 [compound 1581]	–	> 60%	> 60%
COc1ccc(NC(=O)C23CC4CC(CC(C4)C2)C3)cn1 [compound 1544]	–	> 60%	20 to 60%
O=S(=O)(NCC12CC3CC(CC(C3)C1)C2)c1cccs1 [compound 1575]	–	> 60%	< 20%
O=C(C[S+]([O-])c1cc(Cl)ccc1Cl)C12CC3CC(CC(C3)C1)C2 (stereo not shown) [compound 1563]	–	> 60%	> 60%
O=C(NCc1cccs1)C12CC3CC(CC(C3)C1)C2 [compound 1374]	–	> 60%	> 60%
O=C(NCc1ccco1)C12CC3CC(CC(C3)C1)C2 [compound 1579]	–	> 60%	> 60%
O=C(NCc1cccnc1)C12CC3CC(CC(C3)C1)C2 [compound 1542]	–	> 60%	> 60%
